The source of these data is US5399588A, “Naphthalenylmethyl cycloalkenone acetic acids and analogs thereof useful as aldose reductase inhibitors” (American Home Products Corporation, priority 1993, dated 1995).

The target in experiment [1] is T1, bovine lens aldose reductase (Bos taurus, UniProt P16116).
T1 construct: in the preparation of the enzyme from bovine lens; from tissue; host or cells: bovine lens
Briefly: In vitro Inhibition of Aldose Reductase in the Bovine Lens. The class given is biochemical. The note with it: DL-glyceraldehyde as substrate; for inhibition at 0.04 µM: 4 × 10^-8 M; for inhibition at 10 µM: 10^-5 M; for inhibition at 1 µM: 10^-6 M. As to the method:
II. In vitro Inhibition of Aldose Reductase in the Bovine Lens
The aldose reductase inhibiting effects of the compounds of formula (I) were also tested by employing an in vitro testing procedure similar to that described by S. Hayman and J. H. Kinoshita, J. Biol. Chem., 240, 877 (1965) wherein the ability of the invention compounds to inhibit bovine lens aldose reductase with DL-glyceraldehyde as the substrate was determined. In the present case the procedure of Hayman and Kinoshita was modified in that the final chromatography step was omitted in the preparation of the enzyme from bovine lens.

The subject of the next experiment is aldose reductase. As to the kind of experiment: In vivo Inhibition of Aldose Reductase in Galactosemic Rats. The arrangement: species or system male rats, Sprague-Dawley strain. The note with it: four days, polyol accumulation. From the text:
I. In vivo Inhibition of Aldose Reductase in Galactosemic Rats
The aldose reductase inhibiting property of the compounds of this invention and the utilization of the compounds in preventing, diminishing and alleviating diabetic complications are demonstrable in experiments using galactosemic rats, see Dvornik et al., Science, 182, 1146 (1973).
(a) Four or more groups of six male rats, 50-70 g, Sprague-Dawley strain, were used. The first group, the control group, was fed a mixture of laboratory chow (rodent Laboratory Chow, Purina) and glucose at 20% (w/w %) concentration. An untreated galactosemic group was fed a similar diet in which galactose was substituted for glucose. The third group was fed a diet prepared by mixing a given amount of the test compound with the galactose containing diet. The concentration of galactose in the diet of the treated groups was the same as that for the untreated galactosemic group.
(b) After four days, the animals were killed by euthanization. Both the lens and sciatic nerve were removed, weighed and stored frozen for polyol determination.
(c) The polyol determination was performed by a modification of the procedure of M. Kraml and L. Cosyns, Clin. Biochem., 2, 373 (1969). Only two minor reagent changes were made: (a) the rinsing mixture was an aqueous 5% (w/v) trichloroacetic acid solution and (b) the stock solution was prepared by dissolving 25 mg of dulcitol in 100 mL of an aqueous trichloroacetic acid solution. [N.B.: For each experiment the average value found in the tissue from rats fed the glucose diet was subtracted from the individual values found in the corresponding tissue in galactose-fed rats to obtain the amount of polyol accumulated].

The mark [2] stands for this setting: 100 mg/kg/day in galactose-containing diet.

As usually defined, the inhibition is the change of the read-out against control, counted positive when it falls. A high value points to a response far below the control. Regarding `O=C(O)CC1=C(Cc2ccc3c(Br)cccc3c2)C(=O)CCC1` [Example 1, [2-(5-Bromo-naphthalen-2-ylmethyl)-3-oxo-cyclohex-1-enyl]-acetic acid], testing at 0.04 µM in experiment [1] gave an inhibition of 78%. Also, the “% Inhibition of aldose reductase” value with aldose reductase (setting [2]) stood at 68%.
For the compound `COc1ccc2cc(CC3=C(CC(=O)O)CCCC3=O)ccc2c1Br` [Example 2, [2-(5-bromo-6-methoxy-naphthalen-2-ylmethyl)-3-oxocyclohex-1-enyl] acetic acid], in experiment [1] (10^-7 M), the inhibition at 0.1 µM came out at 50%. In addition, the “% Inhibition of aldose reductase” value in the experiment with aldose reductase (setting [2]) worked out at 71%.
For the compound `O=C(O)CC1=C(Cc2ccc3c(Cl)cccc3c2)C(=O)CCC1` [Example 3, [2-(5-chloro-naphthalen-2-ylmethyl)-3-oxo-cyclohex-1-enyl]-acetic acid], at 0.04 µM the inhibition in experiment [1] was 79%. Also, the “% Inhibition of aldose reductase” value with aldose reductase (105 mg/kg/day in galactose-containing diet) turned out to be 52%; in the experiment with aldose reductase (202 mg/kg/day in galactose-containing diet) it was 73%.
Regarding `O=C(O)CC1=C(Cc2ccc3c(Cl)cccc3c2)C(=O)CC1` [Example 4, [2-(5-chloro-naphthalen-2-ylmethyl)-3-oxo-cyclopen-1-enyl]-acetic acid], the inhibition at 0.04 µM in experiment [1] amounted to 62%. Moreover, the “% Inhibition of aldose reductase” value in the experiment with aldose reductase (setting [2]) is 37%.
Take `COC(=O)NC(=O)CC1=C(Cc2ccc3c(Br)cccc3c2)C(=O)CCC1` [Example 5, [[2-(5-bromo-naphthalen-2-ylmethyl)-3-oxo-cyclohex-1-enyl]acetyl]carbamic acid methyl ester]: in experiment [1], the inhibition at 10 µM turned out to be 27%. In addition, the “% Inhibition of aldose reductase” value with aldose reductase (setting [2]) was 45%.
As to `COC(=O)NC(=O)CC1=C(Cc2ccc3c(Cl)cccc3c2)C(=O)CC1` [Example 6, [2-[2-(5-chloro-naphthalen-2-ylmethyl)-3-oxo-cyclopent-1-enyl]-acetyl]carbamic acid methyl ester], the inhibition at 10 µM in experiment [1] turned out to be 19%.
In experiment [1], `O=C(O)CC1=C(Cc2ccc3ccccc3c2)C(=O)CCC1` [Example 7, [2-(naphthalen-2-ylmethyl)-3-oxo-cyclohex-1-enyl]-acetic acid] registered an inhibition at 1 µM of 41%.
`O=C(O)COC1=C(Cc2ccc3c(Cl)cccc3c2)C(=O)CCC1` [Example 8, [[2-(5-chloro-naphthalen-2-ylmethyl)-3-oxo-1-cyclohex-1-enyl]oxy]acetic acid] came in with an inhibition at 0.04 µM in experiment [1] of 81%.
Consider `O=C(O)COC1=C(Cc2ccc3ccccc3c2)C(=O)CCC1` [Example 9, [[2-(naphthalen-2-ylmethyl)-3-oxo-1-cyclohex-1-enyl]oxy]acetic acid], for which, in experiment [1], the inhibition at 1 µM came out at 87%.
Regarding `O=C(O)COC1=C(Cc2ccc3c(Br)cccc3c2)C(=O)CCC1` [Example 10, [[2-(5-bromo-naphthalen-2-ylmethyl)-3-oxo-cyclohex-1-enyl]oxy]-acetic acid], 0.04 µM produced 86% inhibition in experiment [1].
The same measure, in the same setting: as for `O=C(O)COC1=C(Cc2ccc3c(Cl)cccc3c2)C(=O)CC1` [Example 11, [[2-(5-chloro-naphthalen-2-ylmethyl)-3-oxo-cyclopent-1-enyl]oxy]-acetic acid], the figure is 70%.
Turning to `O=C(O)COC1=C(Cc2ccc3ccccc3c2)C(=O)CC1` [Example 12, [[2-(2-Naphthalen-2-ylmethyl)-3-oxo-cyclopent-1-enyl]oxy]-acetic acid], the inhibition at 1 µM in experiment [1] was 61%.
In the case of `COc1ccc2c(CC3=C(CC(=O)O)CCCC3=O)cccc2c1C(F)(F)F` [Example 13, [2-(6-methoxy-5-trifluoromethyl-naphthalen-1-ylmethyl)-3-oxo-cyclohex-1-enyl]-acetic acid], 10 µM produced 51% inhibition in experiment [1].
`COc1ccc2c(CC3=C(CC(=O)O)CCC3=O)cccc2c1C(F)(F)F` [Example 14, [2-(6-Methoxy-5-trifluoromethyl-naphthalen-1-ylmethyl)-3-oxo-cyclopent-1-enyl]-acetic acid] had an inhibition at 10 µM in experiment [1] of 84%.
